# Measurements taken from patent US8188078B2 (Sanofi-Aventis, priority 2007, dated 2012).
# Key:
# RON = RON (Homo sapiens, UniProt Q04912); experiment: Test B: HTRF RON test in 96-well format; assay type: biochemical
# Outline: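 RON 5 nM pre-incubated 30 min at RT with compound (0.17 nM–10 μM final, 3% DMSO) in MOPS 10 mM pH 7, DTT, Tween 20. Reaction with biotinylated poly-(GAT) 1 μg/ml, ATP 10 μM, MgCl2 5 mM, 30 min RT. Eu-anti-pTyr/streptavidin-XL665 HTRF, 665/620 ratio gives % inhibition, IC50.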
# c-MET = target: T1, c-MET (Homo sapiens, UniProt P08581); experiment: Test A: HTRF Met test in 96-well format; assay type: biochemical
# T1 construct: The recombinant DNA His-Tev-MET (956-1390) in pFastBac(Invitrogen); His (N, cleaved yes); Tev (TEV protease site) (N, cleaved yes); made in house; host or cells: SF21 insect cells (baculovirus, pFastBac)
# Outline: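 The kinase was the Sf21-expressed MET cytoplasmic domain (956–1390), His tag removed, used at 5 nM with compound (0.17 nM–10 µM, 3% DMSO) in 10 mM MOPS pH 7.4. Poly-GAT 1 µg/ml, 10 µM ATP and 5 mM MgCl2 reacted 10 min at RT. After an EDTA stop, phosphotyrosine was detected by HTRF (665/620 ratio).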
# MKN45 cells = experiment: Test D: cellular proliferation by 14C-thymidine pulse, MKN45 cells; assay type: cell-based; settings: cell line not stated (HCT116 or MKN45)
# Outline: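 MKN45 cells (7500/well, RPMI + 10% foetal calf serum) treated with 10 concentrations, 10000 to 0.3 nM in 3-fold steps, duplicate. 14C-thymidine (0.1 μCi/well) added at 72 h; incorporation counted after 24 h pulse, 96 h total treatment.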
# [1] = Homo sapiens, MKN-45, cellular proliferation by 14C-thymidine pulse
# [2] = cellular proliferation by 14C-thymidine pulse
# T1 sequence (P08581 956-1390): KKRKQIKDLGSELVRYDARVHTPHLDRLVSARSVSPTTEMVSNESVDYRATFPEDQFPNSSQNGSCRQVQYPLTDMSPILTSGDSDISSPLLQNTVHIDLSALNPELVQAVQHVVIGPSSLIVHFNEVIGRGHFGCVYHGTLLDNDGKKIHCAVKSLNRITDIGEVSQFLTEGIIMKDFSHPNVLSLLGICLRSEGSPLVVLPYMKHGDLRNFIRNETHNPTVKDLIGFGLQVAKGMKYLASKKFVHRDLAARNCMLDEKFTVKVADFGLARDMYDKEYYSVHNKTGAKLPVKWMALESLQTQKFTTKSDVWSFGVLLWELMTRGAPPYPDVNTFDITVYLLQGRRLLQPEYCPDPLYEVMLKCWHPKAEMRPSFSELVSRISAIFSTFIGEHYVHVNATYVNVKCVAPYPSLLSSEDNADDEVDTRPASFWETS
# Chain of RON (Q04912 25-1400): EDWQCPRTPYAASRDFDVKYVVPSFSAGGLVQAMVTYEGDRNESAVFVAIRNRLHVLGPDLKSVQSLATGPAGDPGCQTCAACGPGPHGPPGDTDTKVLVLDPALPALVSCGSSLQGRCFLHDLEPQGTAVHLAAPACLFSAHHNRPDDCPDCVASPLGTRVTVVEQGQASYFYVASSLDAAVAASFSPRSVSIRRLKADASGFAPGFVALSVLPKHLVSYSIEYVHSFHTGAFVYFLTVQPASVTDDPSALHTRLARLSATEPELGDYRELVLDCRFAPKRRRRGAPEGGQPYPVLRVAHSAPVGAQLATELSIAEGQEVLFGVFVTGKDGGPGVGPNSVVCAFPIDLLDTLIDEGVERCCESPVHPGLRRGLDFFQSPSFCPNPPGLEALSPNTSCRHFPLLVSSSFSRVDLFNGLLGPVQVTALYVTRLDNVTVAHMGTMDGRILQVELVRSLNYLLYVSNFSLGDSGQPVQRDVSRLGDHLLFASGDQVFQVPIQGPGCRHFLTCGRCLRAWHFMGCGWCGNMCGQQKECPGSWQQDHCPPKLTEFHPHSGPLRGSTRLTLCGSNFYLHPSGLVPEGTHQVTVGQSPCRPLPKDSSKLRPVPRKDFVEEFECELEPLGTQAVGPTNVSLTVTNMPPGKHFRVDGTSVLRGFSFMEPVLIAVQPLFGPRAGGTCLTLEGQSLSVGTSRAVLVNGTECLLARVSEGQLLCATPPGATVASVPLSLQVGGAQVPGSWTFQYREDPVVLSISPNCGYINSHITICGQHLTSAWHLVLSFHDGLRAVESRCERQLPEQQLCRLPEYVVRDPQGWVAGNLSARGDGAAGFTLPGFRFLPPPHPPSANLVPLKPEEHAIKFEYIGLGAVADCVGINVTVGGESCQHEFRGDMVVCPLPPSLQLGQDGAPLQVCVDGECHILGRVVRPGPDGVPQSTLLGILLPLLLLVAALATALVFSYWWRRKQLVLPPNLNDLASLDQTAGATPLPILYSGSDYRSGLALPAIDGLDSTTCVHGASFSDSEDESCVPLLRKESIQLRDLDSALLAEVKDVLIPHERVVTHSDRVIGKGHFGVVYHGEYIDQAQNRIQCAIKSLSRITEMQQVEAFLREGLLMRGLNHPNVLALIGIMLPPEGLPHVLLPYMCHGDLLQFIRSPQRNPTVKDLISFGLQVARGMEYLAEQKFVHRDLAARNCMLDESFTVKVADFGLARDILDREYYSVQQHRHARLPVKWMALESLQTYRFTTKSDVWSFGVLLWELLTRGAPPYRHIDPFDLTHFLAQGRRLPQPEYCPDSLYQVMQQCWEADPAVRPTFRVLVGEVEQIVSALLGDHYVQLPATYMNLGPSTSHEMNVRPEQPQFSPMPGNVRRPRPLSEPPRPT
IC50 (RON) [nM],IC50 (c-MET) [nM],IC50 (MKN45 cells; [1]) [nM],test B (RON),IC50 (MKN45 cells; [2]) [nM],Compound
500 to 10000,< 100,> 10000,–,–,"CC(Oc1ccc2nc(NC(=O)NCCCN3CCN(Cc4c(F)cccc4Cl)CC3)sc2c1)c1c(Cl)ccc(F)c1Cl (stereo not drawn) [Example 46, 1-{3-[4-(2-chloro-6-fluorobenzyl)piperazin-1-yl]propyl}-3-{6-[1-(2,6-dichloro-3-fluorophenyl)ethoxy]-1,3-benzothiazol-2-yl}urea]"
< 500,< 100,< 500,–,–,"CC(Oc1cc2sc(NC(=O)NCCN3CCN(C)CC3)nc2cc1F)c1c(F)ccc(Cl)c1Cl (single isomer, unassigned) [Example 116, 1-{6-[(1R*)-1-(2,3-dichloro-6-fluorophenyl)ethoxy]-5-fluoro-1,3-benzothiazol-2-yl}-3-[2-(4-methylpiperazin-1-yl)ethyl]urea]"
500 to 10000,< 100,500 to 10000,–,–,"CC(Oc1ccc2nc(NC(=O)NCCCN3CCN(Cc4ccccc4)CC3)sc2c1)c1c(Cl)ccc(F)c1Cl (stereo not drawn) [Example 49, 1-[3-(4-benzylpiperazin-1-yl)propyl]-3-{6-[1-(2,6-dichloro-3-fluorophenyl)ethoxy]-1,3-benzothiazol-2-yl}urea]"
< 500,< 100,< 500,–,–,"CC(Oc1ccc2nc(NC(=O)NCCN3CCOCC3)sc2c1)c1c(F)ccc(Cl)c1Cl (stereo not drawn) [Example 61, 1-{6-[1-(2,3-dichloro-6-fluorophenyl)ethoxy]-1,3-benzothiazol-2-yl}-3-(2-morpholin-4-ylethyl)urea]"
< 500,< 100,< 500,–,–,"CC(Oc1cc2sc(NC(=O)NCCO)nc2cc1F)c1c(Cl)ccc(F)c1Cl (single isomer, unassigned) [Example 99, 1-{6-[(1R*)-1-(2,6-dichloro-3-fluorophenyl)ethoxy]-5-fluoro-1,3-benzothiazol-2-yl}-3-(2-hydroxyethyl)urea]"
–,< 100,500 to 10000,+=,–,"CC(Oc1cc2sc(NC(=O)NCCN3CCNC(=O)C3)nc2cc1F)c1c(Cl)ccc(F)c1Cl (stereo not drawn) [Example 130, 1-{6-[1-(2,6-dichloro-3-fluorophenyl)ethoxy]-5-fluoro-1,3-benzothiazol-2-yl}-3-[2-(3-oxopiperazin-1-yl)ethyl]urea]"
< 500,< 100,500 to 10000,–,–,"CC(Oc1cc2sc(NC(=O)NCCN3CCOCC3)nc2cc1F)c1c(Cl)cccc1Cl (stereo not drawn) [Example 29, 1-{6-[1-(2,6-dichlorophenyl)ethoxy]-5-fluoro-1,3-benzothiazol-2-yl}-3-(2-morpholin-4-ylethyl)urea]"
500 to 10000,< 100,> 10000,–,–,"CC(Oc1ccc2nc(NC(=O)NCCN3CCOCC3)sc2c1)c1ccccc1C(F)(F)F (stereo not drawn) [Example 19, 1-(2-morpholin-4-ylethyl)-3-(6-{1-[2-(trifluoromethyl)phenyl]ethoxy}-1,3-benzothiazol-2-yl)urea]"
500 to 10000,< 100,> 10000,–,–,"CC(Oc1ccc2nc(NC(=O)NCCN3CCN(Cc4ccccc4)CC3)sc2c1)c1c(Cl)ccc(F)c1Cl (stereo not drawn) [Example 35, 1-[2-(4-benzylpiperazin-1-yl)ethyl]-3-{6-[1-(2,6-dichloro-3-fluorophenyl)ethoxy]-1,3-benzothiazol-2-yl}urea]"
< 500,100 to 10000,500 to 10000,–,–,"CC(Oc1ccc2nc(NC(=O)NCCN3CCNCC3)sc2c1)c1c(Cl)ccc(F)c1Cl.O=C(O)C(F)(F)F (stereo not drawn) [Example 37, 1-{6-[1-(2,6-Dichloro-3-fluorophenyl)ethoxy]-1,3-benzothiazol-2-yl}-3-(2-piperazin-1-ylethyl)urea trifluoroacetate]"
500 to 10000,< 100,–,–,500 to 10000,"CCN1CCN(CCNC(=O)Nc2nc3cc(F)c(OC(C)c4c(Cl)ccc(F)c4Cl)cc3s2)CC1 (single isomer, unassigned) [Example 102, 1-{6-[(1S*)-1-(2,6-dichloro-3-fluorophenyl)ethoxy]-5-fluoro-1,3-benzothiazol-2-yl}-3-[2-(4-ethylpiperazin-1-yl)ethyl]urea]"
< 500,< 100,–,–,< 500,"CC(Oc1ccc2nc(NC(=O)NCCN3CCCC3)sc2c1)c1c(F)ccc(Cl)c1Cl (single isomer, unassigned) [Example 121, 1-{6-[(1R*)-(2,3-dichloro-6-fluorophenyl)ethoxy]-1,3-benzothiazol-2-yl}-3-[2-(pyrrolidin-1-yl)ethyl]urea]"
500 to 10000,< 100,500 to 10000,–,–,"CC(Oc1ccc2nc(NC(=O)NCCCN3C(C)CCCC3C)sc2c1)c1c(Cl)ccc(F)c1Cl (stereo not drawn) [Example 47, 1-{6-[1-(2,6-dichloro-3-fluorophenyl)ethoxy]-1,3-benzothiazol-2-yl}-3-[3-(2,6-dimethylpiperidin-1-yl)propyl]urea]"
500 to 10000,< 100,500 to 10000,–,–,"CC(Oc1ccc2nc(NC(=O)CCCN3CCOCC3)sc2c1)c1c(Cl)ccc(F)c1Cl (stereo not drawn) [Example 65, N-{6-[1-(2,6-dichloro-3-fluorophenyl)ethoxy]-1,3-benzothiazol-2-yl}-4-(morpholin-4-yl)butanamide]"
< 500,< 100,> 10000,–,–,"CC(Oc1ccc2nc(NC(=O)NCCCN3CCCCCC3)sc2c1)c1c(Cl)ccc(F)c1Cl (stereo not drawn) [Example 48, 1-(3-azepan-1-ylpropyl)-3-{6-[1-(2,6-dichloro-3-fluorophenyl)ethoxy]-1,3-benzothiazol-2-yl}urea]"
< 500,< 100,–,–,500 to 10000,"C[C@@H](Oc1cc2sc(NC(=O)NCCN3CCOCC3)nc2cc1F)c1c(Cl)ccc(F)c1Cl (single isomer, unassigned) [Example 33, 1-{6-[(1R)-(2,6-dichloro-3-fluorophenyl)ethoxy]-5-fluoro-1,3-benzothiazol-2-yl}-3-(2-morpholin-4-ylethyl)urea or 1-{6-[(1S)-(2,6-dichloro-3-fluorophenyl)ethoxy]-5-fluoro-1,3-benzothiazol-2-yl}-3-(2-morpholin-4-ylethyl)urea]"
500 to 10000,< 100,–,–,500 to 10000,"CC(Oc1cc2sc(NC(=O)NCCN3CCOCC3)nc2cc1F)c1c(F)ccc(Cl)c1Cl (single isomer, unassigned) [Example 113, 1-{6-[(1S*)-1-(2,3-dichloro-6-fluorophenyl)ethoxy]-5-fluoro-1,3-benzothiazol-2-yl}-3-[2-(morpholin-4-yl)ethyl]urea]"
500 to 10000,< 100,500 to 10000,–,–,"CC(Oc1cc2sc(NC(=O)NCCOCC3CC3)nc2cc1F)c1c(Cl)ccc(F)c1Cl (stereo not drawn) [Example 103, 1-[2-(cyclopropylmethoxy)ethyl]-3-{6-[1-(2,6-dichloro-3-fluorophenyl)ethoxy]-5-fluoro-1,3-benzothiazol-2-yl}urea]"
500 to 10000,< 100,> 10000,–,–,"CC(Oc1ccc2nc(NC(=O)NCc3ccncc3)sc2c1)c1c(Cl)ccc(F)c1Cl (stereo not drawn) [Example 57, 1-{6-[1-(2,6-dichloro-3-fluorophenyl)ethoxy]-1,3-benzothiazol-2-yl}-3-(pyridin-4-ylmethyl)urea]"
500 to 10000,< 100,500 to 10000,–,–,"CC(Oc1cc2sc(NC(=O)NCCN3CCOCC3)nc2cc1F)c1c(F)ccc(Cl)c1Cl (stereo not drawn) [Example 111, 1-{6-[1-(2,3-dichloro-6-fluorophenyl)ethoxy]-5-fluoro-1,3-benzothiazol-2-yl}-3-[2-(morpholin-4-yl)ethyl]urea]"
500 to 10000,< 100,–,–,500 to 10000,"{6-[1-(2,6-dichloro-3-fluorophenyl)ethoxy]-5-fluoro-1,3-benzothiazol-2-yl}2-(pyrrolidin-1-yl)ethyl carbamate [Example 73]"
< 500,< 100,500 to 10000,–,–,"CC(Oc1cc2sc(NC(=O)NCCN3CCOCC3)nc2cc1F)c1c(Cl)ccc(F)c1Cl (stereo not drawn) [Example 31, 1-{6-[1-(2,6-dichloro-3-fluorophenyl)ethoxy]-5-fluoro-1,3-benzothiazol-2-yl}-3-(2-morpholin-4-ylethyl)urea]"
500 to 10000,< 100,500 to 10000,–,–,"CC(Oc1ccc2nc(NC(=O)NCCN3CCOCC3)sc2c1)c1c(Cl)ccc(Cl)c1Cl (stereo not drawn) [Example 124, 1-[2-(morpholin-4-yl)ethyl]-3-{6-[1-(2,3,6-trichlorophenyl)ethoxy]-1,3-benzothiazol-2-yl}urea]"
< 500,< 100,< 500,–,–,"CC(Oc1cc2sc(NC(=O)NCCN3CCOCC3)nc2cc1F)c1c(F)ccc(Cl)c1Cl (single isomer, unassigned) [Example 112, 1-{6-[(1R*)-1-(2,3-dichloro-6-fluorophenyl)ethoxy]-5-fluoro-1,3-benzothiazol-2-yl}-3-[2-(morpholin-4-yl)ethyl]urea]"

Compound,IC50 (RON) [nM],IC50 (c-MET) [nM],IC50 (MKN45 cells; [1]) [nM],test B (RON),IC50 (MKN45 cells; [2]) [nM]
CC(Oc1ccc2nc(NC(=O)OCCN3CCOCC3)sc2c1)c1c(Cl)ccc(F)c1Cl (stereo not drawn) [Example 74],500 to 10000,< 100,500 to 10000,–,–
